Numbered stars: 1 amine (or outer) side, 2 acyl side, 3 side chain; on linkers, the order of the positions; unused ones are H or OH. Bridge positions count the residues as written; N and C are the ends. Square brackets hold non-standard residues; d marks the D form. Peptide text beside a SMILES is read from it. * marks the point of attachment. hPhe(3-Cl-4-CF3) = N[C@@H](CCc1ccc(C(F)(F)F)c(Cl)c1)C(=O)O; NMePhe(4-CF3) = CN[C@@H](Cc1ccc(C(F)(F)F)cc1)C(=O)O; 3Oxa8azabicyclo(3.2.1)octane = C1CC2COCC1N2*; NMePhe(4-Cl) = CN[C@@H](Cc1ccc(Cl)cc1)C(=O)O; NMePhe(4-Me) = CN[C@@H](Cc1ccc(C)cc1)C(=O)O; NMePhe(2-Me) = CN[C@@H](Cc1ccccc1C)C(=O)O; X77 = O=C(CN(CCN1CCC(F)(F)CC1)[*:1])[*:2]; NMeGly(cPent) = CN[C@H](C(=O)O)C1CCCC1; Phe(3-I) = N[C@@H](Cc1cccc(I)c1)C(=O)O; NMe3Pal = CN[C@@H](Cc1cccnc1)C(=O)O; NMe4Pal = CN[C@@H](Cc1ccncc1)C(=O)O; NMeCha = CN[C@@H](CC1CCCCC1)C(=O)O; NMeChg = CN[C@H](C(=O)O)C1CCCCC1; NMeI = CC[C@H](C)[C@H](NC)C(=O)O; NMeD = CN[C@@H](CC(=O)O)C(=O)O; NMeL = CN[C@@H](CC(C)C)C(=O)O; NMeV = CN[C@H](C(=O)O)C(C)C; d(β3hA) = C[C@@H](N)CC(=O)O; NMeA = CN[C@@H](C)C(=O)O; Nle = CCCC[C@H](N)C(=O)O; Piperidide = C1CCN(*)CC1; Pyrrolidide = C1CCN(*)C1; Ac5c = NC1(C(=O)O)CCCC1; Aze = O=C(O)[C@@H]1CCN1; Sar = CNCC(=O)O
Each compound was assayed on Human pancreatic cancer cell line AsPC-1 (G12D mutation Kras) (assay: AsPC-1 cell growth inhibition (AsPC-1 CGI)). Conditions: read-out: AsPC-1 cell growth inhibition, 50% growth inhibitory concentration (IC50 value); 96 hours, CellTiter-Glo, values classified in ranges.
Type: cell-based
Description: Test compounds were serially dilated with dimethyl sulfoxide, and 200 nL was then dispensed to a U-bottom 96-well plate using Labcyte Echo. […] The cell suspension was dispensed to a. plate containing a test compound at 100 μL per well and incubated at 37° C. in a 5% carbon dioxide gas incubator. 96 hours later, 80 μL of CellTiter-Glo (Promega) was added to each well and fluorescence was measured.

SMILES	IC50 [nM]
CC[C@H](C)[C@@H]1NC(=O)[C@H](CC(C)C)N(C)C(=O)C[C@@H](C(=O)N2C3CCC2COC3)N(C)C(=O)[C@H]([C@@H](C)CC)N(C)C(=O)C2(CCCC2)NC(=O)[C@@H]2CCCN2C(=O)[C@H](CCc2ccc(C(F)(F)F)c(Cl)c2)NC(=O)CN(C)C(=O)[C@H](Cc2ccc(C(F)(F)F)cc2)N(C)C(=O)[C@@H]2CCN2C(=O)[C@H](C)N(C)C1=O [Compound 545] ([NMeL]I[NMeA][Aze][NMePhe(4-CF3)][Sar][hPhe(3-Cl-4-CF3)]P[Ac5c][NMeI][NMeD]-{3Oxa8azabicyclo(3.2.1)octane}; lactam N-11)	≤ 20
CC[C@H](C)[C@@H]1NC(=O)[C@H](CC(C)C)N(C)C(=O)C[C@@H](C(=O)N(C)C)N(C)C(=O)[C@H]([C@@H](C)CC)N(C)C(=O)[C@H](C)NC(=O)[C@@H](C)NC(=O)[C@H](CCc2ccc(C(F)(F)F)c(Cl)c2)NC(=O)CN(C)C(=O)[C@H](Cc2ccc(C)cc2)N(C)C(=O)[C@@H]2CCN2C(=O)[C@H](C)N(C)C1=O [Compound 382] ([NMeL]I[NMeA][Aze][NMePhe(4-Me)][Sar][hPhe(3-Cl-4-CF3)][dA]A[NMeI][NMeD]-NMe2; lactam N-11)	> 500
CC[C@H](C)[C@@H]1NC(=O)[C@H](C)N(C)C(=O)C[C@@H](C(=O)N2CCCCC2)N(C)C(=O)[C@H](C(C)C)N(C)C(=O)C2(CCCC2)NC(=O)[C@@H]2CCCN2C(=O)[C@H](CCc2ccc(C(F)(F)F)c(Cl)c2)NC(=O)[C@H]2CCCN2C(=O)[C@H](CC2CCCCC2)N(C)C(=O)[C@@H]2CCN2C(=O)CN(C)C1=O [Compound 447] ([NMeA]I[Sar][Aze][NMeCha][dP][hPhe(3-Cl-4-CF3)]P[Ac5c][NMeV][NMeD]-Piperidide; lactam N-11)	> 500
CC[C@H](C)[C@@H]1NC(=O)[C@H](CC(C)C)N(C)C(=O)C[C@@H](C(=O)N2CCCCC2)N(C)C(=O)[C@H](C2CCCCC2)N(C)C(=O)C2(CCCC2)NC(=O)[C@H](Cc2ccncc2)N(C)C(=O)[C@H](CCc2ccc(C(F)(F)F)c(Cl)c2)NC(=O)CN(C)C(=O)[C@H](CC2CCCCC2)N(C)C(=O)[C@@H]2CCN2C(=O)[C@H](C)N(C)C1=O [Compound 656] ([NMeL]I[NMeA][Aze][NMeCha][Sar][hPhe(3-Cl-4-CF3)][NMe4Pal][Ac5c][NMeChg][NMeD]-Piperidide; lactam N-11)	> 500
CC[C@H](C)[C@@H]1NC(=O)[C@H](CC(C)C)N(C)C(=O)C[C@@H](C)NC(=O)[C@H](C(C)C)N(C)C(=O)C2(CCCC2)NC(=O)[C@@H]2CCCN2C(=O)[C@H](CCc2ccc(C(F)(F)F)c(Cl)c2)NC(=O)CN(C)C(=O)[C@H](CC2CCCCC2)N(C)C(=O)CN(C)C(=O)CN(CCN2CCC(F)(F)CC2)C1=O [Compound 635] (cyclo([Ac5c][NMeV][d(β3hA)][NMeL]I[X77][Sar][NMeCha][Sar][hPhe(3-Cl-4-CF3)]P))	> 500
CCCC[C@@H]1NC(=O)[C@H](Cc2cccc(I)c2)NC(=O)CN(C)C(=O)[C@H](Cc2ccc(Cl)cc2)N(C)C(=O)CN(C)C(=O)CN(C)C(=O)[C@H]([C@@H](C)CC)NC(=O)[C@H](CC(C)C)N(C)C(=O)C[C@@H](C(=O)N2CCCCC2)N(C)C(=O)[C@H](CC(C)C)NC(=O)[C@H](Cc2ccccc2C)N(C)C1=O [Compound 696] ([NMeL]I[Sar][Sar][NMePhe(4-Cl)][Sar][Phe(3-I)][Nle][NMePhe(2-Me)]L[NMeD]-Piperidide; lactam N-11)	> 500
CC[C@H](C)[C@@H]1NC(=O)[C@H](CC(C)C)N(C)C(=O)C[C@@H](C(=O)N2CCCCC2)N(C)C(=O)[C@H]([C@@H](C)CC)N(C)C(=O)C2(CCCC2)NC(=O)[C@@H]2CCCN2C(=O)[C@H](CCc2ccc(C(F)(F)F)c(Cl)c2)NC(=O)CN(C)C(=O)[C@H](Cc2ccc(C)cc2)N(C)C(=O)CN(C)C(=O)CN(C)C1=O [Compound 1649] ([NMeL]I[Sar][Sar][NMePhe(4-Me)][Sar][hPhe(3-Cl-4-CF3)]P[Ac5c][NMeI][NMeD]-Piperidide; lactam N-11)	≤ 20
CC[C@H](C)[C@@H]1NC(=O)[C@H](C)N(C)C(=O)C[C@@H](C(=O)N2CCCC2)N(C)C(=O)[C@H](C2CCCCC2)N(C)C(=O)C2(CCCC2)NC(=O)[C@H](Cc2cccnc2)N(C)C(=O)[C@H](CCc2ccc(C(F)(F)F)c(Cl)c2)NC(=O)CN(C)C(=O)[C@H](CC2CCCCC2)N(C)C(=O)CN(C)C(=O)CN(C)C1=O [Compound 1834] ([NMeA]I[Sar][Sar][NMeCha][Sar][hPhe(3-Cl-4-CF3)][NMe3Pal][Ac5c][NMeChg][NMeD]-Pyrrolidide; lactam N-11)	> 500
CC[C@H](C)[C@@H]1NC(=O)[C@H](CC(C)C)N(C)C(=O)C[C@@H](C(=O)N(C)C)N(C)C(=O)[C@H](C2CCCC2)N(C)C(=O)[C@H](C(C)C)NC(=O)[C@H](Cc2ccncc2)N(C)C(=O)[C@H](CCc2ccc(C(F)(F)F)c(Cl)c2)NC(=O)CN(C)C(=O)[C@H](CC2CCCCC2)N(C)C(=O)[C@@H]2CCN2C(=O)[C@H](C)N(C)C1=O [Compound 1982] ([NMeL]I[NMeA][Aze][NMeCha][Sar][hPhe(3-Cl-4-CF3)][NMe4Pal]V[NMeGly(cPent)][NMeD]-NMe2; lactam N-11)	> 500

Reference: patent US20240148821A1, “PHARMACEUTICAL USE OF CYCLIC PEPTIDE COMPOUND” (CHUGAI SEIYAKU KABUSHIKI KAISHA, priority 2021, published 2024)
